Measured values published in patent US6800280B2, “Methods for treating HIV-infected patients by the administration of GM-CSF and a protease inhibitor” (Schering AG, priority 1997, dated 2004).
Values joined by “and” are separate entries in the source; they are usually repeats but may differ in a detail not shown here. Equal values may be shown once. “Also recorded” adds a separate entry of the source.

Key:
[1] = test system: CD4^+ T-lymphocyte counts; assay: Phase I/II randomized, double-blind, placebo-controlled trial: CD4^+ T-lymphocyte counts in HIV-infected patients; type: in vivo, human
Description: (§1) A study was conducted to determine the safety and efficacy of human GM-CSF as a therapeutic reagent in HIV-infected patients. Because some in vitro studies had indicated the possibility that GM-CSF might enhance HIV replication in vivo, this study assessed the impact of co-administration of GM-CSF with an antiretroviral agent on HIV replication. HIV viral burden was measured by the RNA-PCR (Amplicor®) method. To assess the effects of this treatment on lymphocyte counts, blood samples were analyzed throughout the study for determination of CD3^+, CD4^+, and CD8^+ T-lymphocyte counts.
This study was a Phase I/II, randomized, double-blind, placebo-controlled, two-center trial involving patients with HIV disease. Patients meeting specific entry criteria were randomized to treatment with GM-CSF or placebo, and these were administered by subcutaneous injection three times per week for eight weeks. Viral load was determined at baseline (mean of three determinations within fourteen days of study entry), then at two weeks, four weeks, and eight weeks after starting study drugs, and on two separate occasions approximately four weeks after the conclusion of the treatment phase (post-treatment evaluation). Clinical and lymphocyte subset evaluations were performed at each of these same time points (i.e., pre-treatment, week 2, week 4, week 8, and 4 weeks post-study). Twenty patients were enrolled in the study, ten per treatment arm. All twenty patients completed the study.
Patients were eligible for inclusion in the study if the following parameters were met: documented HIV infection, including detectable RNA-PCR during baseline evaluation period, age ≧18 years (or legal age of consent), adequate hematologic function, satisfactory hepatic and renal function, adequate clinical performance status, treatment with an antiretroviral regimen that included either ritonavir or indinavir for at least 8 weeks prior to study enrollment and agreement to continue on a stable regimen throughout the study, ability and willingness to provide written informed consent, agreement to practice medically-approved contraception.
Patients were ineligible for inclusion in the study if the following exclusion criteria were met: concurrent pregnancy or breast feeding, concurrent use of other colony stimulating factors or cytokines (other than erythropoietin), life-expectancy <90 days, concurrent radiation or systemic cancer chemotherapy (or within 2 weeks prior to study entry), inability to self-administer or arrange for administration of subcutaneous injections, significant cardiac disease, prior history of adverse reaction to yeast-derived rhu GM-CSF which would prohibit retreatment, active infection (AIDS-related or not) requiring acute systemic therapy within 8 weeks prior to study enrollment, vaccination of any kind within 8 weeks of study enrollment.
Study participants were randomly assigned to receive either active GM-CSF or placebo. Patients were instructed in methods for self-administration of study medication and received preloaded syringes or vials with empty syringes for home use.
The formulation of recombinant human GM-CSF utilized in this clinical trial was LEUKINE® (commercially available from Immunex Corporation, Seattle, Wash.). LEUKINE® and placebo were supplied as lyophilized powders. Both LEUKINE® and placebo were reconstituted by the aseptic injection of Bacteriostatic Water for Injection, USP, containing 0.9% benzyl alcohol. […] These were 40 mg mannitol, USP; 10 mg sucrose, NF; and 1.2 mg TRIS (tromethamine), USP; per vial of study drug. Vials containing placebo were labeled in a fashion identical to vials containing LEUKINE®. Vials of placebo and LEUKINE® were stored refrigerated at 2-8° C. (36-46° F.). […]

HIV = assay: Phase I/II trial: HIV viral load by RNA-PCR (Amplicor) in HIV-infected patients; type: in vivo, Human Immunodeficiency Virus (HIV); settings: GM-CSF group versus placebo group throughout the study, concurrent antiretroviral drugs
Description: as §1
This study was a Phase I/II, randomized, double-blind, placebo-controlled, two-center trial involving patients with HIV disease. […] Viral load was determined at baseline (mean of three determinations within fourteen days of study entry), then at two weeks, four weeks, and eight weeks after starting study drugs, and on two separate occasions approximately four weeks after the conclusion of the treatment phase (post-treatment evaluation). […]
At 2, 4 and 8 weeks after the start of study drug and at follow-up (approximately 4 weeks after completion of study drug), patients were examined, their medical histories were updated, and samples were taken for laboratory studies. A central laboratory was utilized for HIV quantification laboratory tests in order to standardize procedures and minimize variability. […]

[2] = WEEK 2, 9 patients, 250 mcg s.c. three times per week
[3] = WEEK 4, 10 patients, 250 mcg s.c. three times per week
[4] = WEEK 8, 10 patients, 250 mcg s.c. three times per week
[5] = WEEK 12 (post-treatment), 10 patients

GM-CSF: biosynthetic, yeast-derived, recombinant human GM-CSF; single 127 amino acid glycoprotein with leucine instead of proline at position 23
Effect on CD4^+ T-lymphocyte counts (in words) ([1]; GM-CSF arm versus baseline / placebo, patients concurrently receiving antiretroviral drugs): a trend towards an increase; also recorded: increased at all of the evaluation points; also recorded: significant increase | Change in CD4^+ T-Lymphocyte Counts Relative to Baseline, Mean (Sd) [1, 2]: 39 (150) | Change in CD4^+ T-Lymphocyte Counts Relative to Baseline, Median [1, 2]: −9 | Change in CD4^+ T-Lymphocyte Counts Relative to Baseline, Min-Max [1, 2]: −79-389 | Change in CD4^+ T-Lymphocyte Counts Relative to Baseline, Mean (Sd) [1, 3]: 40 (68) | Change in CD4^+ T-Lymphocyte Counts Relative to Baseline, Median [1, 3]: 34 | Change in CD4^+ T-Lymphocyte Counts Relative to Baseline, Min-Max [1, 3]: −61-135 | Change in CD4^+ T-Lymphocyte Counts Relative to Baseline, Mean (Sd) [1, 4]: 79 (172) | Change in CD4^+ T-Lymphocyte Counts Relative to Baseline, Median [1, 4]: 4 | Change in CD4^+ T-Lymphocyte Counts Relative to Baseline, Min-Max [1, 4]: −68-424 | Change in CD4^+ T-Lymphocyte Counts Relative to Baseline, Mean (Sd) [1, 5]: 28 (54) | Change in CD4^+ T-Lymphocyte Counts Relative to Baseline, Median [1, 5]: 30 | Change in CD4^+ T-Lymphocyte Counts Relative to Baseline, Min-Max [1, 5]: −68-112 | Absolute CD4^+ T-Lymphocyte Counts, Baseline CD4 ([1]; individual patients of GM-CSF arm, baseline (pre-treatment), on ritonavir or indinavir regimen): 276 and 383 and 65 and 590 and 152 and 91 and 24 (2×) and 40 and 136 | Absolute CD4^+ T-Lymphocyte Counts, Post-Study CD4 ([1]; individual patients, approximately 4 weeks after completion of 8-week treatment, 250 mcg s.c. three times per week): 208 and 373 and 77 and 659 and 199 and 161 and 11 and 33 and 136 and 200 | Absolute CD4^+ T-Lymphocyte Counts, Week 2 CD4 ([1]; individual patients, week 2, 250 mcg s.c. three times per week for eight weeks, concurrent ritonavir or indinavir regimen): 229 and 304 and 227 and 979 and 77 and 25 and 26 and 15 and 157 | Absolute CD4^+ T-Lymphocyte Counts, Week 4 CD4 ([1]; individual patients, week 4, 250 mcg s.c. three times per week for eight weeks, concurrent ritonavir or indinavir regimen): 356 and 477 and 31 and 725 and 91 and 219 and 12 and 61 and 26 and 182 | Absolute CD4^+ T-Lymphocyte Counts, Week 8 CD4 ([1]; individual patients, week 8, 250 mcg s.c. three times per week for eight weeks, concurrent ritonavir or indinavir regimen): 238 and 750 and 76 and 1014 and 84 and 162 and 21 and 29 and 18 and 176 | Absolute CD4^+ T-Lymphocyte Counts, Post-Study CD4, Median ([1]; median of GM-CSF arm, approximately 4 weeks post-treatment): 180 | Absolute CD4^+ T-Lymphocyte Counts, Baseline CD4, Median ([1]; median of GM-CSF arm, baseline (pre-treatment)): 114 | Absolute CD4^+ T-Lymphocyte Counts, Week 2 CD4, Median ([1]; median of GM-CSF arm, week 2, 250 mcg s.c. three times per week): 157 | Absolute CD4^+ T-Lymphocyte Counts, Week 4 CD4, Median ([1]; median of GM-CSF arm, week 4, 250 mcg s.c. three times per week): 137 | Absolute CD4^+ T-Lymphocyte Counts, Week 8 CD4, Median ([1]; median of GM-CSF arm, week 8, 250 mcg s.c. three times per week): 123 | MAXIMUM CHANGE > 30% THRU WEEK 8, n/N ([1]; patients with CD4^+ change of 30% or more over baseline / patients counted, thru week 8): 6/10 | MAXIMUM CHANGE > 30% THRU WEEK 12, n/N ([1]; patients with CD4^+ change of 30% or more over baseline / patients counted, thru week 12): 8/10 | MAXIMUM CHANGE > 30% THRU WEEK 12, (%) of patients ([1]; share of patients with CD4^+ change of 30% or more over baseline, thru week 12): (80%) | Change in viral load (in words) (HIV): no significant increase; also recorded: No significant differences; also recorded: without a concurrent increase
